pIC50: −log10 of the molar value. Like-named read-outs stand apart in the source and are kept apart here.
Tests used:
Aurora A = target: T1, Aurora A (Homo sapiens, UniProt O14965); assay: radiometric […]-ATP kinase assay with recombinant kinase at Km ATP ([…]); type: biochemical
T1 construct: gene AURKA
T1 sequence (O14965 1-403): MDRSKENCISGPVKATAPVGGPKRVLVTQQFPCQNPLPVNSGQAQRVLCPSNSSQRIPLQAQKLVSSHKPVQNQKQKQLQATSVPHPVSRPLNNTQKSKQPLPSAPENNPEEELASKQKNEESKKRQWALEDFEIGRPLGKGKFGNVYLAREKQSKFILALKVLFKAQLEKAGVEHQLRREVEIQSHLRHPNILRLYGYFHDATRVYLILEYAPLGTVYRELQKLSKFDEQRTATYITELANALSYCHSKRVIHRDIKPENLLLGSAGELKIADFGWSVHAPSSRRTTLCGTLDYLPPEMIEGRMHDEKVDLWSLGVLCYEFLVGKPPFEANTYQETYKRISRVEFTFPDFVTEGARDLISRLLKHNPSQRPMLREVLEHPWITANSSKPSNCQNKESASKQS

TNK1 = target: T2, TNK1 (Homo sapiens, UniProt Q13470); assay: radiometric […]-ATP kinase assay with recombinant kinase at Km ATP ([…]); supported by NanoBRET target engagement in HEK293 cells (IC50 […]); type: biochemical
T2 sequence (Q13470 1-666): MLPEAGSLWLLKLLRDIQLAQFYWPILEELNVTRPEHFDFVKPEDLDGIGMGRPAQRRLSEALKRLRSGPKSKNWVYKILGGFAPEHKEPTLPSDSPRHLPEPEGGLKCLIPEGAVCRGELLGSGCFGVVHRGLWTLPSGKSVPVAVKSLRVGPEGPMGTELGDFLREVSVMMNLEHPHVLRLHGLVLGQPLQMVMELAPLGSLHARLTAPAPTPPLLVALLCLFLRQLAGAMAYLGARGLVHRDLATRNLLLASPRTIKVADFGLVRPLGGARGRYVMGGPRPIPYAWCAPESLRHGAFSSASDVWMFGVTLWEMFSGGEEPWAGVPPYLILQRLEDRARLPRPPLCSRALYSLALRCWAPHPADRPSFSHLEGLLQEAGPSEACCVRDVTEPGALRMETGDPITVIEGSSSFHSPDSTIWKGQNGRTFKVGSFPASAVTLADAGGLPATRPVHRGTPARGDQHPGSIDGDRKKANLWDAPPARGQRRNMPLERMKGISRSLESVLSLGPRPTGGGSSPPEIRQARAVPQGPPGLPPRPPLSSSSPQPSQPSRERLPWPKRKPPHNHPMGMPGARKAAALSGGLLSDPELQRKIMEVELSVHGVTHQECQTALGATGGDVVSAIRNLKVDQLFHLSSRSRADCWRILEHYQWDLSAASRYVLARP

CDC7/DBF4 = CDC7/DBF4 (Homo sapiens, UniProt O00311); assay: biochemical; set-up: Reaction Biology 371-kinase panel at Km ATP, per cent enzyme activity relative to DMSO, single dose in duplicate; settings: duplicate measurements, Km ATP
Experimental: (§1) To assess kinase selectivity, we screened TP-5801 (300 nM) against a panel of 371 kinases in vitro. […] In addition to TNK1, only 7 other kinases were inhibited by more than 90% (Supplementary Fig. 8 and Supplementary Data 2). […] The resulting % Enzyme activity (relative to DMSO controls) were plotted in GraphPad and IC50 values were determined by sigmoidal dose-response (variable slope) curve fits, with a bottom constraint of 0.

MARK4 = MARK4 (Homo sapiens, UniProt Q96L34); assay: biochemical; set-up: Reaction Biology 371-kinase panel at Km ATP, per cent enzyme activity relative to DMSO, single dose in duplicate; settings: duplicate measurements, Km ATP
Experimental: as §1

P38b/MAPK11 = P38b/MAPK11 (Homo sapiens, UniProt Q15759); assay: biochemical; set-up: Reaction Biology 371-kinase panel at Km ATP, per cent enzyme activity relative to DMSO, single dose in duplicate; settings: duplicate measurements, Km ATP
Experimental: as §1

P38g = target: T3, P38g (Homo sapiens, UniProt P53778); assay: biochemical; set-up: Reaction Biology 371-kinase panel at Km ATP, per cent enzyme activity relative to DMSO, single dose in duplicate; settings: duplicate measurements, Km ATP
T3 construct: gene MAPK12
Experimental: as §1

PBK/TOPK = PBK/TOPK (Homo sapiens, UniProt Q96KB5); assay: biochemical; set-up: Reaction Biology 371-kinase panel at Km ATP, per cent enzyme activity relative to DMSO, single dose in duplicate; settings: duplicate measurements, Km ATP
Experimental: as §1

PKMYT1 = target: T4, PKMYT1 (Homo sapiens, UniProt Q99640); assay: biochemical; set-up: Reaction Biology 371-kinase panel at Km ATP, per cent enzyme activity relative to DMSO, single dose in duplicate; settings: duplicate measurements, Km ATP
T4 sequence (Q99640 1-499): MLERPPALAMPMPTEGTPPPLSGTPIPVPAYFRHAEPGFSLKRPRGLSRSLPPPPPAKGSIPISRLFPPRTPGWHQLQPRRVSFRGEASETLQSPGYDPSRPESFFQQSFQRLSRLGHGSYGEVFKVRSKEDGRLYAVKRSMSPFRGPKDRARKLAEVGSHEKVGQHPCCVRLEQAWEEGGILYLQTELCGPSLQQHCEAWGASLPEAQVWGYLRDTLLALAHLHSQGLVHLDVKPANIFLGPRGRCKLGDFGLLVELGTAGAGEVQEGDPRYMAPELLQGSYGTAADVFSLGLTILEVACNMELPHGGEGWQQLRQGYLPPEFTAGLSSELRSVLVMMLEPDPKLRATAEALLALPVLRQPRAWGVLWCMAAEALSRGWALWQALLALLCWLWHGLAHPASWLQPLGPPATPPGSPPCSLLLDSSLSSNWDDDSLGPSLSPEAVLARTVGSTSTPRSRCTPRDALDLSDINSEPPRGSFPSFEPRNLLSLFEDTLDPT
Experimental: as §1

TRKB = target: T5, TRKB (Homo sapiens, UniProt Q16620); assay: biochemical; set-up: Reaction Biology 371-kinase panel at Km ATP, per cent enzyme activity relative to DMSO, single dose in duplicate; settings: duplicate measurements, Km ATP
T5 construct: gene NTRK2
Experimental: as §1

YSK4/MAP3K19 = YSK4/MAP3K19 (Homo sapiens, UniProt Q56UN5); assay: biochemical; set-up: Reaction Biology 371-kinase panel at Km ATP, per cent enzyme activity relative to DMSO, single dose in duplicate; settings: duplicate measurements, Km ATP
Experimental: as §1

[1] = read-out: % Enzyme Activity (relative to DMSO controls) / TP-0005801 (0.3µM) / Data 1
[2] = read-out: % Enzyme Activity (relative to DMSO controls) / TP-0005801 (0.3µM) / Data 2

T5 sequence (Q16620 whole entry): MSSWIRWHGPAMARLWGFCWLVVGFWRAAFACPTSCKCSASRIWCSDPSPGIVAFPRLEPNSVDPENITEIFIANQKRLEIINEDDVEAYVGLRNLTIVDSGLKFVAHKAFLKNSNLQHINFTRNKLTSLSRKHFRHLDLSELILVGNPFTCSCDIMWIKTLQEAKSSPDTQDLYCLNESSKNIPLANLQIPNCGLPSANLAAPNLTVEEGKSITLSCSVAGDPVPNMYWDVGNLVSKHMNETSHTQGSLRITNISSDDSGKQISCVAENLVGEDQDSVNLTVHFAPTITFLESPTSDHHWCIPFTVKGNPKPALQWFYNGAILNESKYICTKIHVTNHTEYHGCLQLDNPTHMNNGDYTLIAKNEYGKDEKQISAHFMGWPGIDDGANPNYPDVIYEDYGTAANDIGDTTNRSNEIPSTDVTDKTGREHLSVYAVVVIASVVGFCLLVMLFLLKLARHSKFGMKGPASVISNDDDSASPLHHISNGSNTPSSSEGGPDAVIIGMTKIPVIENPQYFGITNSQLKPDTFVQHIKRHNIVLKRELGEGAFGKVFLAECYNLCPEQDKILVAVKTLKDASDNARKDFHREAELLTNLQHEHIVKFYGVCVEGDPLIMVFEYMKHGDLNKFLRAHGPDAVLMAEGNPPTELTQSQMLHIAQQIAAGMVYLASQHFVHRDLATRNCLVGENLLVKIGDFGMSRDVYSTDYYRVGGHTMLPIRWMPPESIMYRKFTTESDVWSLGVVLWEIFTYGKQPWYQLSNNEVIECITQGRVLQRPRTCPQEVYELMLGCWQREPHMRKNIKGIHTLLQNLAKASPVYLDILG
Chain of YSK4/MAP3K19 (Q56UN5 whole entry): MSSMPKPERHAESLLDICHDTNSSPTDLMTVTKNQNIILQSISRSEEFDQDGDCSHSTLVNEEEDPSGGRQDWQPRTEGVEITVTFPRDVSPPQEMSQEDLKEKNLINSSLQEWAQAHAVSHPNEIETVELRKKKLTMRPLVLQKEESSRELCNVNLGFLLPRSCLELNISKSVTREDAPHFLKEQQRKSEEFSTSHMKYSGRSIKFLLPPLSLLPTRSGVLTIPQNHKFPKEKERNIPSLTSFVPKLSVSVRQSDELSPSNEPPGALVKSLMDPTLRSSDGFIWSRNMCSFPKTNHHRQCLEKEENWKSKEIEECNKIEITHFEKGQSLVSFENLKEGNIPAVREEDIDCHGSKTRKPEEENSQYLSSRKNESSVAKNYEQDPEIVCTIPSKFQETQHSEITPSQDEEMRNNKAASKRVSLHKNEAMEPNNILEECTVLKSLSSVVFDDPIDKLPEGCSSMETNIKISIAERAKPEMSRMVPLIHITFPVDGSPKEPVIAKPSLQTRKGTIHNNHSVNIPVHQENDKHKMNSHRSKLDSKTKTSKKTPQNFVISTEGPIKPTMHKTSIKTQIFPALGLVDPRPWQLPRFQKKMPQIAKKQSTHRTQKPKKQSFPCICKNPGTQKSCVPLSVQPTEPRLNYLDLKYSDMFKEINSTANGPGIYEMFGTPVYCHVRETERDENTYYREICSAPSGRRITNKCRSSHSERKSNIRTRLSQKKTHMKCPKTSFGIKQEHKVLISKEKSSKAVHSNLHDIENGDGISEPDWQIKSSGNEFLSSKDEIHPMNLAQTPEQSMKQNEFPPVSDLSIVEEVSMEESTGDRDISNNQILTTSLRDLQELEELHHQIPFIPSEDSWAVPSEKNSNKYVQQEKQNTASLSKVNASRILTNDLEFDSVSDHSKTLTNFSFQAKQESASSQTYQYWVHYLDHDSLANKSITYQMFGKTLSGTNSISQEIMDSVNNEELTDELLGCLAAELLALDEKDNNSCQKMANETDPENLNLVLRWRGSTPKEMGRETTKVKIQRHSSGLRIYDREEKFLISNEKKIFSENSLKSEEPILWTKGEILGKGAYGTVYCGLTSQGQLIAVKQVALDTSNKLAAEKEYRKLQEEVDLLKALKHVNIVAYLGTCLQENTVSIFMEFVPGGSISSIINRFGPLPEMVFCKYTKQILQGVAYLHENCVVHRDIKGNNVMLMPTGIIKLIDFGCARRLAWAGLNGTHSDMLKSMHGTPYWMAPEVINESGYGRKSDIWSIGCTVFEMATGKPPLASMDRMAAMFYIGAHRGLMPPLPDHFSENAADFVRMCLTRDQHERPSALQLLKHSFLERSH
Chain of CDC7/DBF4 (O00311 whole entry): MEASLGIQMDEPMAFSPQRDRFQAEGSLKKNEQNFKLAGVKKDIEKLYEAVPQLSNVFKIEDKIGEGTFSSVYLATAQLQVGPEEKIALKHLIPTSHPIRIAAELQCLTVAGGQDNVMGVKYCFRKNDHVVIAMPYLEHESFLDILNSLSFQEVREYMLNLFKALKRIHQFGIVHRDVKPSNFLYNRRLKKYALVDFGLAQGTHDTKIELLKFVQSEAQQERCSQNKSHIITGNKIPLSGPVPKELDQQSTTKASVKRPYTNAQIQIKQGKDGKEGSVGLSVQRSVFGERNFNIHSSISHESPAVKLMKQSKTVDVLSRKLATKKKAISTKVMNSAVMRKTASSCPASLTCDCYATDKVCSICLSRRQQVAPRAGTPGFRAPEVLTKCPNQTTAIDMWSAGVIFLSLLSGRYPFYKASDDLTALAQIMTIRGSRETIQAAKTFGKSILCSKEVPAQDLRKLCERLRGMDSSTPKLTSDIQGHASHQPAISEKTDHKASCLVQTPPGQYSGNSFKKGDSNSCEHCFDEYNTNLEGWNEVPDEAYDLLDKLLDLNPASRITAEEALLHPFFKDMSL
Chain of CDC7/DBF4 (Q9UBU7 whole entry partner): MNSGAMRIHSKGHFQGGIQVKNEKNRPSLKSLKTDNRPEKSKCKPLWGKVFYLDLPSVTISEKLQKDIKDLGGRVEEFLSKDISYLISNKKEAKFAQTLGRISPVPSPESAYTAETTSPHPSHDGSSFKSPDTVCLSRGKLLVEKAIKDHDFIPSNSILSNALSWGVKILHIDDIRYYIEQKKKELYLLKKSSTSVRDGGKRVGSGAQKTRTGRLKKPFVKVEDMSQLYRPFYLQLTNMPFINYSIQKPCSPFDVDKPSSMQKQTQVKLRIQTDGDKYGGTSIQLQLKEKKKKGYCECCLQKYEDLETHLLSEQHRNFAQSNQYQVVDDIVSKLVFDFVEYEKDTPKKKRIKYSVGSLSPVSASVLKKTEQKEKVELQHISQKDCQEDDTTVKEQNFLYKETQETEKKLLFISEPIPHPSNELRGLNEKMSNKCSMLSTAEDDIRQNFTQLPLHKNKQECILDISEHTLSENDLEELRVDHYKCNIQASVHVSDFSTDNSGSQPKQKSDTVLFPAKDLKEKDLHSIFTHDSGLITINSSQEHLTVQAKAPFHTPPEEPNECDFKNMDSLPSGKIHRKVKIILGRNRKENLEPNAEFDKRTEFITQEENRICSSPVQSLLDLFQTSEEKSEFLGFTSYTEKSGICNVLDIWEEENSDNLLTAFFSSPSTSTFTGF
Chain of PBK/TOPK (Q96KB5 whole entry): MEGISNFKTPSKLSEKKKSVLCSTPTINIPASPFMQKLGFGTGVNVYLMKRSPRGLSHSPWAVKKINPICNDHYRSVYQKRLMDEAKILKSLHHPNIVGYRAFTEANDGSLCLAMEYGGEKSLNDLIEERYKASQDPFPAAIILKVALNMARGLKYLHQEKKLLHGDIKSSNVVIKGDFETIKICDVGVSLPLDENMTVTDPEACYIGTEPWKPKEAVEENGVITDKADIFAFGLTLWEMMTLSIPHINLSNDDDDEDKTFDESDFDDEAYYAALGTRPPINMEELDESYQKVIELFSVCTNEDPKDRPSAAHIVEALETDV
Chain of MARK4 (Q96L34 whole entry): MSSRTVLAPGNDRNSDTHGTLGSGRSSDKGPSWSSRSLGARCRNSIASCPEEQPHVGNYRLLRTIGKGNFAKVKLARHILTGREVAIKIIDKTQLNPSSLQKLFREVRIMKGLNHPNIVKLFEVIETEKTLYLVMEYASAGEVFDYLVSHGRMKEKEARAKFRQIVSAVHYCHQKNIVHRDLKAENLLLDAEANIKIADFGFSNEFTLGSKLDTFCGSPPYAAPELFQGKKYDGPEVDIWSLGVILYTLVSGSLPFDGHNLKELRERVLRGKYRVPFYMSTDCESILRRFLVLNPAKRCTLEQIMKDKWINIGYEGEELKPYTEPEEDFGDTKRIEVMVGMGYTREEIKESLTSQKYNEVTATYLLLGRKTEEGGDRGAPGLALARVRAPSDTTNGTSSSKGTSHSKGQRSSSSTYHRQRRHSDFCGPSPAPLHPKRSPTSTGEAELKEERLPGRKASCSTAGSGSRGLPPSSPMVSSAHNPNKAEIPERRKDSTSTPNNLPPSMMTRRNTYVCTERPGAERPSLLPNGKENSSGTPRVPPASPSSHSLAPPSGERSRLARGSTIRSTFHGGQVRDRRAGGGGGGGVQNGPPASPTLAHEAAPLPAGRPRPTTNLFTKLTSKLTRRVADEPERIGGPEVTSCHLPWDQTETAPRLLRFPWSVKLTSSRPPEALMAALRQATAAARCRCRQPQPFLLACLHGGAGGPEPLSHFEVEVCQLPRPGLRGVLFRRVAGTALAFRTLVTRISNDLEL
T3 sequence (P53778 whole entry): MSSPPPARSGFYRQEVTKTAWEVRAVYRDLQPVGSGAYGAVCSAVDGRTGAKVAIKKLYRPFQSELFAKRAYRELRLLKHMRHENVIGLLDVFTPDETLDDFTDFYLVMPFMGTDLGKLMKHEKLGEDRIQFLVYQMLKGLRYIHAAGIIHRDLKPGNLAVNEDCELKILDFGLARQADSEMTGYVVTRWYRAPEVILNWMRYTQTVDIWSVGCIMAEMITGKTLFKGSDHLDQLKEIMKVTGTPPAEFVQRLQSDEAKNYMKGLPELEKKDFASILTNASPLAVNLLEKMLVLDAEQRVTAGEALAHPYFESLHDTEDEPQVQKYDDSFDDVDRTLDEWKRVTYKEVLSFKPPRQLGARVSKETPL

COc1cc(N2CCN(C)CC2)c(C)cc1Nc1ncc(Br)c(Nc2cccnc2N(C)C)n1 [TP-5801]
pIC50 (Aurora A): 5.27 | pIC50 (TNK1): 8.85 | remaining activity at 0.3 µM (CDC7/DBF4; [1]): 124% | remaining activity at 0.3 µM (CDC7/DBF4; [2]): 123% | remaining activity at 0.3 µM (MARK4; [1]): 89.8% | remaining activity at 0.3 µM (MARK4; [2]): 88.4% | remaining activity at 0.3 µM (P38b/MAPK11; [1]): 102% | remaining activity at 0.3 µM (P38b/MAPK11; [2]): 101% | remaining activity at 0.3 µM (P38g; [1]): 104% | remaining activity at 0.3 µM (P38g; [2]): 102% | remaining activity at 0.3 µM (PBK/TOPK; [1]): 107% | remaining activity at 0.3 µM (PBK/TOPK; [2]): 98.9% | remaining activity at 0.3 µM (PKMYT1; [1]): 62.9% | remaining activity at 0.3 µM (PKMYT1; [2]): 62.8% | remaining activity at 0.3 µM (TRKB; [1]): 96.1% | remaining activity at 0.3 µM (TRKB; [2]): 95.9% | remaining activity at 0.3 µM (YSK4/MAP3K19; [1]): 93.8% | remaining activity at 0.3 µM (YSK4/MAP3K19; [2]): 92.8%

From PMC8429728, “TNK1 is a ubiquitin-binding and 14-3-3-regulated kinase that can be targeted to block tumor growth” (Nature Communications, 2021)
